Tests used:
Experiment in all cases: Kinase selectivity profile assay
Type in all cases: biochemical
[1] = target: T1, DRAK1/STK17A (Homo sapiens, UniProt Q9UEE5); conditions: 500 nM; relative to DMSO; read-out: Residual enzymatic activity
T1 construct: purchased Reaction Biology Corporation
Outline: (§1)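 Radiometric kinase assay run by a standard protocol. Unbound phosphate was removed by washing filters in phosphoric acid, and product radioactivity gave percent remaining kinase activity versus DMSO vehicle reactions. Run in duplicate.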

[2] = target: T2, KHS/MAP4K5 (Homo sapiens, UniProt Q9Y4K4); conditions: 500 nM; relative to DMSO; read-out: Residual enzymatic activity
T2 construct: purchased Reaction Biology Corporation
Outline: as §1

[3] = target: T3, CK1g3 (Homo sapiens, UniProt Q9Y6M4); conditions: 500 nM; relative to DMSO; read-out: Residual enzymatic activity
T3 construct: purchased Reaction Biology Corporation
Outline: as §1

[4] = target: T4, CDK3/cyclin E (Homo sapiens, UniProt Q00526); conditions: 500 nM; relative to DMSO; read-out: Residual enzymatic activity
T4 construct: purchased Reaction Biology Corporation
Outline: as §1

[5] = target: T5, FER (Homo sapiens, UniProt P16591); conditions: 500 nM; relative to DMSO; read-out: Residual enzymatic activity
T5 construct: purchased Reaction Biology Corporation
Outline: as §1

[6] = target: T6, DCAMKL2 (Homo sapiens, UniProt Q8N568); conditions: 500 nM; relative to DMSO; read-out: Residual enzymatic activity
T6 construct: purchased Reaction Biology Corporation
Outline: as §1

[7] = target: T7, EPHA6 (Homo sapiens, UniProt Q9UF33); conditions: 500 nM, relative to DMSO; for remaining activity at 0.5 µM: read-out: Residual enzymatic activity
T7 construct: purchased Reaction Biology Corporation
T7 sequence (Q9UF33 23-1036): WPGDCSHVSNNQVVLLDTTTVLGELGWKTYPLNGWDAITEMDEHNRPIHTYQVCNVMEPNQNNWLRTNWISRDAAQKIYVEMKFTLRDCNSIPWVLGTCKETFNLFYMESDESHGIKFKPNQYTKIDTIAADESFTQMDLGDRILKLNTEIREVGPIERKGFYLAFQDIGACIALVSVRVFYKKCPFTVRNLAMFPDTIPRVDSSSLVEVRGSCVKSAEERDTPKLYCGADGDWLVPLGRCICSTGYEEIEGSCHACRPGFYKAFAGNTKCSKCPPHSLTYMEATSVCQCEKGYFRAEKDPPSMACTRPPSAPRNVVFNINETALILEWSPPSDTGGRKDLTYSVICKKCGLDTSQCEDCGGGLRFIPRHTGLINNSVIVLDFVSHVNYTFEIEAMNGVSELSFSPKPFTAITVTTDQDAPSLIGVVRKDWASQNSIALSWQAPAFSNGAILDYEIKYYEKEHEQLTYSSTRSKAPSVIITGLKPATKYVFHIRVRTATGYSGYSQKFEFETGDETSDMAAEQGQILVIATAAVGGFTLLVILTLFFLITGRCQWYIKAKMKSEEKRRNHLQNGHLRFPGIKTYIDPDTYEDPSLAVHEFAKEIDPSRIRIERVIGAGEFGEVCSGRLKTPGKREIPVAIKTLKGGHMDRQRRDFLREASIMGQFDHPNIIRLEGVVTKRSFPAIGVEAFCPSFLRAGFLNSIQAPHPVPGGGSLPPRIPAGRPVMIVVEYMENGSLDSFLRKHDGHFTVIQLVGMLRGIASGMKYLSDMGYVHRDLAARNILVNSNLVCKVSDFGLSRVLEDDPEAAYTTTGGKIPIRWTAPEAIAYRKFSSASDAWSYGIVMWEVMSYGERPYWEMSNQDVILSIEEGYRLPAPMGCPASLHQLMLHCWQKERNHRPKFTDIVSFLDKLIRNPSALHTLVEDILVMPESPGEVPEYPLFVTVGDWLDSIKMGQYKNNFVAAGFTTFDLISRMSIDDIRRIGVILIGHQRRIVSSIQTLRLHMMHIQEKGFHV
Outline: as §1

[8] = target: T8, IKKe/IKBKE (Homo sapiens, UniProt Q14164); conditions: 500 nM; relative to DMSO; read-out: Residual enzymatic activity
T8 construct: purchased Reaction Biology Corporation
Outline: as §1

[9] = target: T9, JAK3 (Homo sapiens, UniProt P52333); conditions: 500 nM; relative to DMSO; read-out: Residual enzymatic activity
T9 construct: purchased Reaction Biology Corporation
Outline: as §1

[10] = target: T10, CAMK1b (Homo sapiens, UniProt Q6P2M8); conditions: 500 nM; relative to DMSO; read-out: Residual enzymatic activity
T10 construct: purchased Reaction Biology Corporation
Outline: as §1

[11] = target: T11, ULK1 (Homo sapiens, UniProt O75385); conditions: 500 nM; relative to DMSO; read-out: Residual enzymatic activity
T11 construct: purchased Reaction Biology Corporation
Outline: as §1

[12] = target: T12, PHKg2 (Homo sapiens, UniProt P15735); conditions: 500 nM; relative to DMSO; read-out: Residual enzymatic activity
T12 construct: purchased Reaction Biology Corporation
Outline: as §1

[13] = target: T13, NEK1 (Homo sapiens, UniProt Q96PY6); conditions: 500 nM; relative to DMSO; read-out: Residual enzymatic activity
T13 construct: purchased Reaction Biology Corporation
Outline: as §1

[14] = target: T14, PKCtheta (Homo sapiens, UniProt Q04759); conditions: 500 nM; relative to DMSO; read-out: Residual enzymatic activity
T14 construct: purchased Reaction Biology Corporation
Outline: as §1

[15] = target: T15, COT1/MAP3K8 (Homo sapiens, UniProt P41279); conditions: 500 nM; relative to DMSO; read-out: Residual enzymatic activity
T15 construct: purchased Reaction Biology Corporation
Outline: as §1

[16] = target: T16, GLK/MAP4K3 (Homo sapiens, UniProt Q8IVH8); conditions: 500 nM; relative to DMSO; read-out: Residual enzymatic activity
T16 construct: purchased Reaction Biology Corporation
Outline: as §1

[17] = target: T17, SIK3 (Homo sapiens, UniProt Q9Y2K2); conditions: 500 nM; relative to DMSO; read-out: Residual enzymatic activity
T17 construct: purchased Reaction Biology Corporation
Outline: as §1

[18] = target: T18, SNARK/NUAK2 (Homo sapiens, UniProt Q9H093); conditions: 500 nM; relative to DMSO; read-out: Residual enzymatic activity
T18 construct: purchased Reaction Biology Corporation
Outline: as §1

[19] = target: T19, CAMK2b (Homo sapiens, UniProt Q13554); conditions: 500 nM; relative to DMSO; read-out: Residual enzymatic activity
T19 construct: purchased Reaction Biology Corporation
Outline: as §1

[20] = target: T20, CDK1/cyclin A (Homo sapiens, UniProt P06493); conditions: 500 nM; relative to DMSO; read-out: Residual enzymatic activity
T20 construct: purchased Reaction Biology Corporation
Outline: as §1

[21] = target: T21, NEK5 (Homo sapiens, UniProt Q6P3R8); conditions: 500 nM; relative to DMSO; read-out: Residual enzymatic activity
T21 construct: purchased Reaction Biology Corporation
Outline: as §1

[22] = target: T22, CAMKK2 (Homo sapiens, UniProt Q96RR4); conditions: 500 nM; relative to DMSO; read-out: Residual enzymatic activity
T22 construct: purchased Reaction Biology Corporation
Outline: as §1

[23] = target: T23, WNK3 (Homo sapiens, UniProt Q9BYP7); conditions: 500 nM; relative to DMSO; read-out: Residual enzymatic activity
T23 construct: purchased Reaction Biology Corporation
Outline: as §1

[24] = target: T24, IR (Homo sapiens, UniProt P06213); conditions: 500 nM; relative to DMSO; read-out: Residual enzymatic activity
T24 construct: purchased Reaction Biology Corporation
Outline: as §1

[25] = target: T25, NEK6 (Homo sapiens, UniProt Q9HC98); conditions: 500 nM; relative to DMSO; read-out: Residual enzymatic activity
T25 construct: purchased Reaction Biology Corporation
Outline: as §1

[26] = target: T26, Haspin (Homo sapiens, UniProt Q8TF76); conditions: 500 nM; relative to DMSO; read-out: Residual enzymatic activity
T26 construct: purchased Reaction Biology Corporation
Outline: as §1

[27] = target: T27, CDK2/cyclin A (Homo sapiens, UniProt P24941); conditions: 500 nM; relative to DMSO; read-out: Residual enzymatic activity
T27 construct: purchased Reaction Biology Corporation
Outline: as §1

T6 sequence (Q8N568 whole entry): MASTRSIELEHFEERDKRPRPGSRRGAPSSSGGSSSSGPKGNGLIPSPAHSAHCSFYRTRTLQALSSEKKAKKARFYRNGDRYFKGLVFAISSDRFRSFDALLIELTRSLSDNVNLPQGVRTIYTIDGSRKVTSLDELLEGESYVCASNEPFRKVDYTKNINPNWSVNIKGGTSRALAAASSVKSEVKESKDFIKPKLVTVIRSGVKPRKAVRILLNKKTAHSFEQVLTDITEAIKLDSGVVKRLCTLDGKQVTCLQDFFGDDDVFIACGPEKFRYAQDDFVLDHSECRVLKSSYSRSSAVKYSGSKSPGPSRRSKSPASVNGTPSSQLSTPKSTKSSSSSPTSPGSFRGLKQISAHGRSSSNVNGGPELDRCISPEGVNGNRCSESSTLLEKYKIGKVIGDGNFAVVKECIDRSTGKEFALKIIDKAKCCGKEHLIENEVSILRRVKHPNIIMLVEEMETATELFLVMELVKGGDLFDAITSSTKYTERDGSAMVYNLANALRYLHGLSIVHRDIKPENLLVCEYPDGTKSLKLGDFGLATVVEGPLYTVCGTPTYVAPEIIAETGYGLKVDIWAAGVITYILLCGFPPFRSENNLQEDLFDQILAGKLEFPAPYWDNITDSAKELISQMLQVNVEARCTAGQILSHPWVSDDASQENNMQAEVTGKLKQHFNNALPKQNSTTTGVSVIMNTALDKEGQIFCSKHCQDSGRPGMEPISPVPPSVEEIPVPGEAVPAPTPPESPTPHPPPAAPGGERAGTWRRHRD
T11 sequence (O75385 whole entry): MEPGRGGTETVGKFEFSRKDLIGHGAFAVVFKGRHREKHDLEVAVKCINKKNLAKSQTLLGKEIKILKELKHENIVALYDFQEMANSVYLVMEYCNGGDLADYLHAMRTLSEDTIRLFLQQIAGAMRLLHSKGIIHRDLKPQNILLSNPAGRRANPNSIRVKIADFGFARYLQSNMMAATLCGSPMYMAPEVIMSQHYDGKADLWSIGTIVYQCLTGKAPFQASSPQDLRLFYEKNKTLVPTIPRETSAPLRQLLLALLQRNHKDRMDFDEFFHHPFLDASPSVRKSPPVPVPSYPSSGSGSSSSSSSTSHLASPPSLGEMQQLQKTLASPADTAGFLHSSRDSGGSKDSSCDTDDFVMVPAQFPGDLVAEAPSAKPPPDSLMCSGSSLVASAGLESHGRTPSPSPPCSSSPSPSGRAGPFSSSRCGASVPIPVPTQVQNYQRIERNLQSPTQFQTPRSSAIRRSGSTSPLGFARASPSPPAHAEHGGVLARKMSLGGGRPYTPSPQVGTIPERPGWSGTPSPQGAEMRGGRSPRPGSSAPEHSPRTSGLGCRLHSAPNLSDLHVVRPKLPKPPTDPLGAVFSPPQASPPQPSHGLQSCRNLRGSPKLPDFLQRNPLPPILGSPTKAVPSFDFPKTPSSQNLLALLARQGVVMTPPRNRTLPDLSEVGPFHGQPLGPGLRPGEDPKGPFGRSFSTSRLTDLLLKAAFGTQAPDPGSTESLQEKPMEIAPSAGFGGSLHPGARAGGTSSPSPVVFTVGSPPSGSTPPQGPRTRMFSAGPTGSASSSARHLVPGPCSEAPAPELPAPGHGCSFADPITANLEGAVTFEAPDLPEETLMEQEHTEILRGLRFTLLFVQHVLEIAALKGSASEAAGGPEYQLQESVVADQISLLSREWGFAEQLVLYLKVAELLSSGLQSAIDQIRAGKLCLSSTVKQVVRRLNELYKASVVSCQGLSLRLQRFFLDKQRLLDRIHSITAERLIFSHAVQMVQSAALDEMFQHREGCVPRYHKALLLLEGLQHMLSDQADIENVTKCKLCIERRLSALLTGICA
T14 sequence (Q04759 whole entry): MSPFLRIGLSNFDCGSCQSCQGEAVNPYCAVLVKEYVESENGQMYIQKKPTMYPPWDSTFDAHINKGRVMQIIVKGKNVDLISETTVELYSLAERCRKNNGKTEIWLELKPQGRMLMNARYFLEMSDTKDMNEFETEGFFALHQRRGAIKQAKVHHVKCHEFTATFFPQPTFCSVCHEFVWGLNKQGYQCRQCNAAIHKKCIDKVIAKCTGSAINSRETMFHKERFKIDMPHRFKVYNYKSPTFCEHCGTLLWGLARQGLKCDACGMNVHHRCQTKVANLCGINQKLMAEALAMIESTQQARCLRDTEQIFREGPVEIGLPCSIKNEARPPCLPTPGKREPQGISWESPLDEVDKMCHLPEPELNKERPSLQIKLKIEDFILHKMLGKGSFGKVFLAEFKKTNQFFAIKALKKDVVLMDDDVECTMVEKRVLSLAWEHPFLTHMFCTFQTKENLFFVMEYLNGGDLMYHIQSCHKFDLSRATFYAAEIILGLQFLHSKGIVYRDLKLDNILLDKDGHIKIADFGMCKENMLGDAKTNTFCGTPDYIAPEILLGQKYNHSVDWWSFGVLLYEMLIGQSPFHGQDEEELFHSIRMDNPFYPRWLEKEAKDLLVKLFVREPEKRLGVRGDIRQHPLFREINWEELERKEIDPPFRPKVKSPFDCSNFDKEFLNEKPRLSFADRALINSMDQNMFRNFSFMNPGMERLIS
T16 sequence (Q8IVH8 whole entry): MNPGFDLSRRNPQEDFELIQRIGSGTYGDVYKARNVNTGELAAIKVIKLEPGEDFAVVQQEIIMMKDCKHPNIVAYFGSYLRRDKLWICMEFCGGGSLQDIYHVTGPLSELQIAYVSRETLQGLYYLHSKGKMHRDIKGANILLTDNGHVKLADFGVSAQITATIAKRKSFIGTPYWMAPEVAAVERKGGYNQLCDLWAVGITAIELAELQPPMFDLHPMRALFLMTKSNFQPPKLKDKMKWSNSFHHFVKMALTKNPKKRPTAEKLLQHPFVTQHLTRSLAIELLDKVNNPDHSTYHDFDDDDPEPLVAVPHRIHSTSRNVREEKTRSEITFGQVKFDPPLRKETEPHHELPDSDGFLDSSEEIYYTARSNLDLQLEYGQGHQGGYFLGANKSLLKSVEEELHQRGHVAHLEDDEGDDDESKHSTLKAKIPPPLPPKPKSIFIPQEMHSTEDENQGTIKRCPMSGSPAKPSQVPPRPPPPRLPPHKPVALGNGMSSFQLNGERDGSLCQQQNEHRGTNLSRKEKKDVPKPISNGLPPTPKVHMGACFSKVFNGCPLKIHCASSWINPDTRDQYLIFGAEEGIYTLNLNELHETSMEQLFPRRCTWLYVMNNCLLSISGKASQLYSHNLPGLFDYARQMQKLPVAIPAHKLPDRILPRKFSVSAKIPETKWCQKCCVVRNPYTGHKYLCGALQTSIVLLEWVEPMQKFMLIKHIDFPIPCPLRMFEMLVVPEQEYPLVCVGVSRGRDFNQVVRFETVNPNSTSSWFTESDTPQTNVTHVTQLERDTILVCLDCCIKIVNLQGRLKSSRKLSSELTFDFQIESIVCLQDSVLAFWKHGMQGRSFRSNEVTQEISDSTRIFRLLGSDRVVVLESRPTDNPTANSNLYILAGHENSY
T15 sequence (P41279 whole entry): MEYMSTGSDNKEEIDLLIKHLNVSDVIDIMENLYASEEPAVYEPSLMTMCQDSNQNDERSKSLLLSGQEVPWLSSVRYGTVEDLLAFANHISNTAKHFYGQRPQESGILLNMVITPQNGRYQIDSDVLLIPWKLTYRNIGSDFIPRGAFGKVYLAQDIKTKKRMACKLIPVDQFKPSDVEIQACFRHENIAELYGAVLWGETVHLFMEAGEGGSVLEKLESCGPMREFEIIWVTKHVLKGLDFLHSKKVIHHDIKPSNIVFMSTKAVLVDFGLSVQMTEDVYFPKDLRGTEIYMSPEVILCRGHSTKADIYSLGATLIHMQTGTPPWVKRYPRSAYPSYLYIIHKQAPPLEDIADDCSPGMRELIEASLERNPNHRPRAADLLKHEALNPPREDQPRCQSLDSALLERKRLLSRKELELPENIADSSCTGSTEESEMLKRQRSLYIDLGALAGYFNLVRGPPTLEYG
T2 sequence (Q9Y4K4 whole entry): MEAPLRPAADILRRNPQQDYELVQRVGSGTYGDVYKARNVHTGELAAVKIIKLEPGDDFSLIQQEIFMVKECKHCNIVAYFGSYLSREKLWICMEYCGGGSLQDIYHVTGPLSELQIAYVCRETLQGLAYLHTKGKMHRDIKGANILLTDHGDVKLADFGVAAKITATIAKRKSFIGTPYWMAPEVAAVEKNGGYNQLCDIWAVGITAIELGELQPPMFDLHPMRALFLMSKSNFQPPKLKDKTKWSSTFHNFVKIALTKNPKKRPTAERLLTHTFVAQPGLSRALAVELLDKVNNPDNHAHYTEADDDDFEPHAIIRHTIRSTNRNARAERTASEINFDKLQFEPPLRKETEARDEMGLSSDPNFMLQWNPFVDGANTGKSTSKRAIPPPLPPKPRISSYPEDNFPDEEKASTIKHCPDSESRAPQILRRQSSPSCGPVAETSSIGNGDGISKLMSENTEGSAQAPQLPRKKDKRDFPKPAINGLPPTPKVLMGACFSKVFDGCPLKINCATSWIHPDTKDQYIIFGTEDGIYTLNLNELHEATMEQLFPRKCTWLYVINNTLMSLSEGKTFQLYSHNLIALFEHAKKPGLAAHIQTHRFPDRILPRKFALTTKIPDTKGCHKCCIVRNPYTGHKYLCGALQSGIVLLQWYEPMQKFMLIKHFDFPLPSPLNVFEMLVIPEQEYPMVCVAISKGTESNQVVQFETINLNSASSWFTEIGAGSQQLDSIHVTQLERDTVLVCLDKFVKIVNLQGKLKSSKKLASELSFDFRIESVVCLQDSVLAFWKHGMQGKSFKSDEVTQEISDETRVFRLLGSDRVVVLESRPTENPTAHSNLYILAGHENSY
T25 sequence (Q9HC98 whole entry): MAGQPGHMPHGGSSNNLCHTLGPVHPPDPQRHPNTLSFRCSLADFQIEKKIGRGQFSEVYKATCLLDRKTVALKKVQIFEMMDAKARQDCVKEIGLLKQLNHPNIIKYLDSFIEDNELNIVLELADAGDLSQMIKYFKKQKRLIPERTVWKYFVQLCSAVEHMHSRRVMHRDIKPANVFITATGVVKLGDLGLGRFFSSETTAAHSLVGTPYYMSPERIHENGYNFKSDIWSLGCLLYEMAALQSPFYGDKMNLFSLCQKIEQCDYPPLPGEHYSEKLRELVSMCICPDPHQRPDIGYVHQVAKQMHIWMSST

| Structure (SMILES) | remaining activity at 0.5 µM [1] [%] | remaining activity at 0.5 µM [2] [%] | remaining activity at 0.5 µM [3] [%] | remaining activity at 0.5 µM [4] [%] | remaining activity at 0.5 µM [5] [%] | remaining activity at 0.5 µM [6] [%] | remaining activity at 0.5 µM [7] [%] | remaining activity at 0.5 µM [8] [%] | remaining activity at 0.5 µM [9] [%] | remaining activity at 0.5 µM [10] [%] | remaining activity at 0.5 µM [11] [%] | remaining activity at 0.5 µM [12] [%] | remaining activity at 0.5 µM [13] [%] | remaining activity at 0.5 µM [14] [%] | remaining activity at 0.5 µM [15] [%] | remaining activity at 0.5 µM [16] [%] | remaining activity at 0.5 µM [17] [%] | remaining activity at 0.5 µM [18] [%] | remaining activity at 0.5 µM [19] [%] | remaining activity at 0.5 µM [20] [%] | further results |
| --- | --- | --- | --- | --- | --- | --- | --- | --- | --- | --- | --- | --- | --- | --- | --- | --- | --- | --- | --- | --- | --- |
| COc1cc(Nc2ncc(F)c(Nc3ccc4c(n3)NC(=O)C(C)(C)O4)n2)cc(OC)c1OC [R406, reference compound] | 43.3 | 87.1 | 79.6 | 90.3 | 22.9 | 91.8 | 24.9 | 16.1 | 10.4 | 108 | 8.8 | 93.4 | 7 | 99.5 | 100 | 65.8 | 75.4 | 59.7 | 95.8 | 74.2 | remaining activity at 0.5 µM [21]: 27.1%; remaining activity at 0.5 µM [22]: 88.8%; remaining activity at 0.5 µM [23]: 77.7%; remaining activity at 0.5 µM [24]: 77.5%; remaining activity at 0.5 µM [25]: 70.5%; remaining activity at 0.5 µM [26]: 91.5%; remaining activity at 0.5 µM [27]: 47.6% |
| COc1cc(Nc2ncnc(Nc3cc4c(cn3)NC(=O)C(C)(C)O4)n2)cc(OC)c1OC [MT-SYK-03] | 93.6 | 91.8 | 72.2 | 99 | 78.8 | 99.1 | > 54 | 77.5 | 74.7 | 106 | 62.2 | 102 | 52.7 | 102 | 90.4 | 94.1 | 83.4 | 102 | 97.7 | 110 | Residual enzymatic activity [7]: 73.9%; remaining activity at 0.5 µM [21]: 63.6%; remaining activity at 0.5 µM [22]: 97.2%; remaining activity at 0.5 µM [23]: 82.4%; remaining activity at 0.5 µM [24]: 94.4%; remaining activity at 0.5 µM [25]: 103%; remaining activity at 0.5 µM [26]: 101%; remaining activity at 0.5 µM [27]: 83.1% |

Reference: article PMC8632988, “Inhibition of SYK and cSrc kinases can protect bone and cartilage in preclinical models of osteoarthritis and rheumatoid arthritis” (Scientific Reports, 2021)
